One compound from paper PMC8467532, “DYRK1A Kinase Inhibitors Promote β-Cell Survival and Insulin Homeostasis” (Cells, 2021) can be followed below.

The structures appear in SMILES notation. A value given as a limit tells only on which side of the number the result lay.

In test [1] the test system is hiPSC-derived pancreatic organoids. In words: Insulin secretion assay in hiPSC-derived β-cell organoids (ELISA). In kind it is cell-based, human. Further details: key to insulin secretion (ELISA): ↑: moderate; ↑↑: most potent. The procedure:
Differentiation of hiPSC into iPSC-derived β-cell islets was carried out following the protocol established by Pellegrini et al. for pluripotent stem cells with slight modifications. A day before differentiation, 800,000 cells were seeded on coated with Geltrex (Gibco) 12 wells plate in Essential 8 medium (Gibco) with Y-27632 10 µM (Abcam). The following culture media were used for differentiation:
M1 medium: MCDB131 (Gibco) + 8 mM D-(þ)-Glucose (Sigma) + 1.23 g/L NaHCO3 (Sigma) + 2% BSA (Sigma) + 0.25 mM Vitamin C (Sigma) + 1% Pen/Strep (Lonza, Basel, Switzerland) + 1% L-glutamine (Lonza);
M2 medium: MCDB131 + 20 mM D-Glucose + 1.754 g/L NaHCO3 + 2% BSA + 0.25 mM Vitamin C + Heparin 10mg/mL (Sigma) + 1% Pen/Strep + 1% L-glutamine. All media were filter-sterilized through a 0.22 µm bottle top filter (Corning, New York, NY, USA). For sequential culture medium changes, small molecules and growth factors were added to the base media immediately before daily exchange. Media switches were as follows: days 0–3: STEMdiff™ Definitive Endoderm Kit ([…], Vancouver, Canada) used following manufacturer instructions; days 4–6: M1 medium + 50 ng/mL KGF (Peprotech, London, UK) + 1:50,000 ITS-X (Invitrogen, Carlsbad, CA, USA); days 7–8: M1 medium + 50 ng/mL KGF + 0.25 µM Sant1 (Sigma) + […] Retinoic acid (RA) (Sigma) + 500 nM PdBU (Millipore, Berlington, MA, United States) + 1:200 ITS-X + 200 nM LDN193189 (only Day 7) (Sigma); days 9–13: M1 medium + 50 ng/mL KGF + 0.25 µM Sant1 + 100 nM RA + 1:200 ITS-X; days 14–18: M2 medium + 0.25 µM Sant1 + 100 nM RA + 1 µM XXI (Millipore) + 10 µM Alk5i II (Selleckchem, Munich, Germany) + 1 µM L-3,30,5-Triiodothyronine (T3) (Sigma) + 20 ng/mL Betacellulin (R&D, Minneapolis, MN, USA) + 1:200 ITS-X.
The Insulin ELISA (Ultra Sensitive) was used to quantify insulin levels in control and treated organoids and isolated islets from the mouse pancreas (Crystal Chem, Downers Grove, IL, USA). Islets were homogenized in lysis buffer. Obtained buffer lysates and medium samples (after GSIS) were analyzed for total protein level and subsequently processed following the manufacturer’s protocol.
A general note: An ELISA detects its analyte on a solid surface through an enzyme-linked reagent.

In a further test the target is T1, DYRK1A kinase domain (Homo sapiens, UniProt Q13627).
T1 construct: kinase domain of DYRK1A (126–490) was cloned into pET24a with C-terminal His-tag; made in house; host or cells: E. coli BL21 (DE3) RIL
In words: MST direct binding assay.

For the next test, the target named is T2, DYRK1A (Homo sapiens, UniProt Q13627).
T2 construct: kinase domain of DYRK1A (126–490) was cloned into pET24a with C-terminal His-tag; His-tag (C); made in house; host or cells: E. coli BL21 (DE3) RIL
The experiment in a line: Cook activity assay (ATP regenerative NADH consuming DYRK1A activity assay). The class given is biochemical.

The subject of the next test is INS-1E cells. The experiment in a line: Cell cycle analysis (propidium iodide). The class given is cell-based, rat. To be noted: 5 µM, 24 h. The procedure:
To synchronize cell cultures, we used the serum starvation protocol. INS-1E cells were seeded in a 6-well plate in a growth medium with 20% FBS overnight. Then the cultures were rinsed by PBS and change to a serum-free medium. After serum starvation for 24 h, cells were released into the cell cycle by the addition of serum and 5 µM inhibitor solution for 24 h. The cells were then detached from the plate using trypsin. Then after washing, they were incubated with 50 µg/mL propidium iodide for 15 min in the dark. Cells were analyzed with the BDAccuri flow cytometer and calculated using FlowJo software.

For the next test, the system named is NFAT. In words: NFAT luciferase reporter assay in HEK 293 NFAT cell line expressing DYRK1A. In kind it is cell-based. As for the experimental part: The Renilla luciferase reporter assay was performed in HEK 293 NFAT cell line, constitutively expressing DYRK1A, NFAT and Renilla luciferase under the control of an NFAT-RE promoter. The cells were seeded at 10,000 per well in 96-well white plates (Cellstar, Greiner; Burlington, MA, United States). The following day cells were incubated with the indicated concentration of inhibitor for 30 min, then the medium was changed, and cells were stimulated with 1 μM ionomycin and 10 nM PMA for 5 h. Next, the cell lysate was harvested to measure luciferase activity with Renilla-Glo Luciferase Assay System (Promega, Wisconsin, United States). All experiments were carried out in triplicates.
On the technique in general: A reporter such as luciferase makes a cellular process visible.

The subject of a further test is DYRK1A in MIN6 cell line. The experiment in a line: DYRK1A expression by flow cytometry and confocal imaging. In kind it is cell-based, mouse. The procedure: The presence of insulin, glucagon, C-peptide, Ki67, and DYRK1A was assessed in MIN6 and INS-1E pancreatic cell lines. Before imaging, cells were seeded onto slides at a density of 1 × 10^5 cells and maintained at 37 °C in 95% atmospheric air and 5% CO2 in a humidified atmosphere for 24 h. After washing with fresh medium, cells were incubated with 5 µM inhibitor solution for 24 h. After this time, the solution was replaced with a culture medium for another 48 h. The cells were fixed. Then after washing and permeabilization, they were incubated with specific antibodies diluted in PBS. Next, the cells were incubated for 10 min with Hoechst33342 (Sigma-Aldrich). After incubation, at 37 °C, in the dark, the cells were washed twice with HBSS (Gibco), the slide was transferred to a microscope table, and the cells were visualized under a Zeiss LSM 880 confocal microscope (Carl Zeiss, Jena, Germany) with a 63× immersion objective. Images were analyzed by Zeiss ZEN Software.
The presence of insulin, glucagon, C-peptide, Ki67 and DYRK1A was assessed in MIN6 and INS-1E pancreatic cell lines. Before analysis, cells were seeded onto slides at a density of 1 × 10^5 cells and maintained at 37 °C in 95% atmospheric air and 5% CO2 in a humidified atmosphere for 24 h. After washing with fresh medium, cells were incubated with 5 µM inhibitor solution for 24 h. After this time, the solution was replaced with a culture medium for another 48 h. The cells were then detached from the plate using trypsin. The cells were fixed. Then after washing and permeabilization, they were incubated with specific antibodies diluted in PBS. Cells were analyzed with BDAccuri flow cytometer and calculated using FlowJo software (Ashland, Oregon-based FlowJo LLC, a subsidiary of Becton Dickinson).
For orientation: In flow cytometry, cells or beads pass a laser one at a time.

[2] abbreviates: Table 2, Biochemistry, unit inferred.

The term Kd denotes the constant that tells how readily two partners part at equilibrium. A word on the Ki: it is the equilibrium dissociation constant of an inhibitor or competing ligand from its target.

On to `O=c1ccc2cnc3ccc(-c4cn[nH]c4)cc3c2n1-c1ccc(F)cc1C(F)(F)F` [AC27, 1-(4-fluoro-2-(trifluoromethyl)phenyl)-9-(1H-pyrazol-4-yl)benzo[h][1, 6]naphthyridin-2-one], for which, in test [1] (GSIS, compared with untreated control cells), the insulin release entry is “markedly increased insulin release”. The “insulin secretion (ELISA)” value in test [1] (Table 2, hiPSC) is on record as “↑”. For the same compound, the Kd was 1800 ± 500 nM on DYRK1A kinase domain (MST direct binding, 20 nM fluorescent-labelled DYRK1A kinase domain) and 1830 ± 543 nM at DYRK1A kinase domain (setting [2]). In addition, the Ki at DYRK1A (Cook assay, DYRK1A 0.5 µM, ATP 128 µM, DYRKtide 1 mM) is 200 ± 300 nM; at DYRK1A (Cook assay, phosphorylation of substrate peptide), below 200 nM; on DYRK1A (setting [2]), 170 ± 260 nM. The “number of cells in the G2/M phase” value in the test with INS-1E cells is “increase”. Further, the “activity relative to harmine in NFAT assay” value in the test with NFAT (1 µM AC27 gives same activity as 10 µM harmine) is around 10 times. Also, the “increase of NFAT activity” value in the test on NFAT (low concentration range 0.03 µM–1 µM) is given as at most 6 fold. In the test on DYRK1A in MIN6 cell line (MIN6, 24 h with inhibitor, control 74%), the “DYRK1A (fluorescence-positive cells, flow cytometry)” value is given as 33%. Also, the “DYRK1A signal in confocal imaging” value in the test on DYRK1A in MIN6 cell line (MIN6, vs untreated control) is reported as “reduced”.
